# Where a SMILES comes first, the peptide text is derived from it. Bridges are numbered along the chain shown (N, C = ends).
# Columns and labels:
# in vivo = settings: male, Wistar, rat, sc, 50 nmol/kg; for AUC: in vivo; for Cmax / half-life: plasma
# Procedure: (§1) Eight-week-old male Wistar rats were purchased from Charles River Laboratories Japan, Inc. The rats were grown with normal feeds in the absence of specific pathogens under cycles of a 12-hour light period and a 12-hour dark period. […] To determine plasma AM concentrations, 50 nmol/kg of AM or an AM analog was subcutaneously administered. A peripheral blood sample was collected from the tail vein into a test tube (containing 21 μg of aprotinin and 0.3 mg of EDTA-2Na) at predetermined times (0, 15, 30, 60, and 120 minutes after administration). The test tube was centrifuged at 1,700×g to afford plasma.
# in vitro = settings: for change in amount with the lapse of reaction time in reaction mixture with serum: Experiment IV, up to 240 minutes; for remaining at 4 h: serum, pH 7.1
# Procedure: After the lapse of a predetermined time, a 30-μl portion was taken out of the reaction solution, transferred into 170 μl of 0.1% aqueous solution of trifluoroacetic acid (TFA), and stored at −80° C. until analysis.
# Quantitative analysis was performed for AM contained in the thus-obtained samples of a reaction mixture with serum or plasma by using specific fluoroimmunoassay (Tosoh Corporation) with two antibodies differing in their recognition sites. […] In the figure, the abscissa represents reaction time (min), and the ordinate represents concentration of AM (UM).
# In the figure, the abscissa represents reaction time (min), and the ordinate represents concentration of AM or an AM analog (μM).
# In the figure, the abscissa represents the type of AM or an AM analog, and the ordinate represents residual rates of AM or an AM analog (%).
# [1] = 50 nmol/kg subcutaneous, Experiment VI
# Procedure: as §1
Structure (SMILES),AUC (in vivo) [nM·h],Cmax (in vivo) [nM],half-life (in vivo) [h],change in amount with the lapse of reaction time in reaction mixture with serum (in vitro),remaining at 4 h (in vitro) [%],detection in rat plasma after subcutaneous administration [1]
"CC[C@H](C)[C@H](NC(=O)[C@H](CCC(N)=O)NC(=O)[C@H](Cc1c[nH]cn1)NC(=O)[C@H](C)NC(=O)[C@H](CC(C)C)NC(=O)[C@H](CCCCN)NC(=O)[C@H](CCC(N)=O)NC(=O)[C@@H](NC(=O)[C@@H](NC(=O)[C@@H]1CSSC[C@H](NC(=O)CNC(=O)[C@H](Cc2ccccc2)NC(=O)[C@@H](N)CO)C(=O)N[C@@H](CCCNC(=N)N)C(=O)N[C@@H](Cc2ccccc2)C(=O)NCC(=O)N[C@@H]([C@@H](C)O)C(=O)N1)[C@@H](C)O)C(C)C)C(=O)N[C@@H](Cc1ccc(O)cc1)C(=O)N[C@@H](CCC(N)=O)C(=O)N[C@@H](Cc1ccccc1)C(=O)N[C@H](C(=O)N[C@@H](CC(=O)O)C(=O)N[C@@H](CCCCN)C(=O)N[C@@H](CC(=O)O)C(=O)N[C@@H](CCCCN)C(=O)N[C@@H](CC(=O)O)C(=O)N[C@@H](CC(N)=O)C(=O)N[C@H](C(=O)N[C@@H](C)C(=O)N1CCC[C@H]1C(=O)N[C@H](CCCNC(=N)N)C(=O)N[C@@H](CO)C(=O)N[C@@H](CCCCN)C(=O)N[C@H](C(=O)N[C@@H](CO)C(=O)N1CCC[C@H]1C(=O)N[C@@H](CCC(N)=O)C(=O)NCC(=O)N[C@@H](Cc1ccc(O)cc1)C(N)=O)[C@@H](C)CC)C(C)C)[C@@H](C)O (relative stereo) [[D-Arg-44]hAM(13-52), SFGCRFGTCTVQKLAHQIYQFTDKDKDNVAP-*R-S-K-I-S-P-Q-G-Y-CONH2]",0.0591,0.111,1.27,almost no decrease or only slight decrease in amount,81.9,detected in rat plasma 15 minutes after administration
"CC[C@H](C)[C@H](NC(=O)[C@H](CCC(N)=O)NC(=O)[C@H](Cc1c[nH]cn1)NC(=O)[C@H](C)NC(=O)[C@H](CC(C)C)NC(=O)[C@H](CCCCN)NC(=O)[C@H](CCC(N)=O)NC(=O)[C@@H](NC(=O)[C@@H](NC(=O)[C@@H]1CSSC[C@H](NC(=O)CNC(=O)[C@H](Cc2ccccc2)NC(=O)[C@@H](N)CO)C(=O)N[C@@H](CCCNC(=N)N)C(=O)N[C@@H](Cc2ccccc2)C(=O)NCC(=O)N[C@@H]([C@@H](C)O)C(=O)N1)[C@@H](C)O)C(C)C)C(=O)N[C@@H](Cc1ccc(O)cc1)C(=O)N[C@@H](CCC(N)=O)C(=O)N[C@@H](Cc1ccccc1)C(=O)N[C@H](C(=O)N[C@@H](CC(=O)O)C(=O)N[C@@H](CCCCN)C(=O)N[C@@H](CC(=O)O)C(=O)N[C@@H](CCCCN)C(=O)N[C@@H](CC(=O)O)C(=O)N[C@@H](CC(N)=O)C(=O)N[C@H](C(=O)N[C@@H](C)C(=O)N1CCC[C@H]1C(=O)N[C@@H](CCCCN)C(=O)N[C@@H](CO)C(=O)N[C@@H](CCCCN)C(=O)N[C@H](C(=O)N[C@@H](CO)C(=O)N1CCC[C@H]1C(=O)N[C@@H](CCC(N)=O)C(=O)NCC(=O)N[C@@H](Cc1ccc(O)cc1)C(N)=O)[C@@H](C)CC)C(C)C)[C@@H](C)O [[Lys-44]hAM(13-52), SFGCRFGTCTVQKLAHQIYQFTDKDKDNVAPKSKISPQGY-CONH2] (H-SFGCRFGTCTVQKLAHQIYQFTDKDKDNVAPKSKISPQGY-NH2; disulfide 4-9)",0.227,0.396,1.47,almost no decrease or only slight decrease in amount,51.8,detected in rat plasma 15 minutes after administration

# From US12637499B2, “Adrenomedullin analog, method for producing the same, and pharmaceutical use thereof” (priority 2020, dated 2026)
